inhibition, Activity and IC50 data for eleven compounds are collected here from ChEMBL document CHEMBL4414588, “Cinerols, Nitrogenous Meroterpenoids from the Marine Sponge Dysidea cinerea” (J Nat Prod, 2019).

Series [1] addresses T1, Tyrosine-protein phosphatase non-receptor type 11 (Homo sapiens) (UniProt Q06124).
T1 sequence (whole entry): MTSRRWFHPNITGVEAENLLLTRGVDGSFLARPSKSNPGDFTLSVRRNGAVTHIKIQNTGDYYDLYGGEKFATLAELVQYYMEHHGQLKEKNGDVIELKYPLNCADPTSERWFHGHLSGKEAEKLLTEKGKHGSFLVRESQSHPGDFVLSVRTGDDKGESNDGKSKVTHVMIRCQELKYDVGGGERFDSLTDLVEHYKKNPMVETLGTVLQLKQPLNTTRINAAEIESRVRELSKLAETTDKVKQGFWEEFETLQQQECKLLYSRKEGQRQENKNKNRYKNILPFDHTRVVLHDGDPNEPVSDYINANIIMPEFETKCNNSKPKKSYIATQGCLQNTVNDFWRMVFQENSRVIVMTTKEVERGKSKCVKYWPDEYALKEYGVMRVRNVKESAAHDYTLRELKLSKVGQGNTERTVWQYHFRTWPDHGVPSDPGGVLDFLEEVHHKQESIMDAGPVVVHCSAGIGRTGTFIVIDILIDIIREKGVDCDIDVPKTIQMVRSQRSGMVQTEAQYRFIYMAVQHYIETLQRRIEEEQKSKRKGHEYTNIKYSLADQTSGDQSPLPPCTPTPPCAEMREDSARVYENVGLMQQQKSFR
Briefly: Inhibition of SHP2 (unknown origin).

The target in series [2] is Acetyl-CoA carboxylase 1 (Homo sapiens) (UniProt Q13085). Briefly: Inhibition of ACC1 (unknown origin).
A further series relates to A-375. In words: Cytotoxicity against human A375 cells assessed as reduction in cell viability at 32 uM incubated for 72 hrs by CCK8 assay. The series is classed as cell-based. The following applies: a-375, 72 h. (Tetrazolium dyes change colour on reduction, which living cells bring about.)
The next series has as its system HEK293. Briefly: Cytotoxicity against human HEK293 cells assessed as reduction in cell viability at 32 uM incubated for 72 hrs by CCK8 assay. The series is classed as cell-based. The following applies: hek293, 72 h.
In series [3] the target is Tyrosine-protein kinase JAK2 (Homo sapiens) (UniProt O60674). Briefly: Inhibition of JAK2 (unknown origin).
Chain of Tyrosine-protein kinase JAK2 (Homo sapiens) (O60674 whole entry): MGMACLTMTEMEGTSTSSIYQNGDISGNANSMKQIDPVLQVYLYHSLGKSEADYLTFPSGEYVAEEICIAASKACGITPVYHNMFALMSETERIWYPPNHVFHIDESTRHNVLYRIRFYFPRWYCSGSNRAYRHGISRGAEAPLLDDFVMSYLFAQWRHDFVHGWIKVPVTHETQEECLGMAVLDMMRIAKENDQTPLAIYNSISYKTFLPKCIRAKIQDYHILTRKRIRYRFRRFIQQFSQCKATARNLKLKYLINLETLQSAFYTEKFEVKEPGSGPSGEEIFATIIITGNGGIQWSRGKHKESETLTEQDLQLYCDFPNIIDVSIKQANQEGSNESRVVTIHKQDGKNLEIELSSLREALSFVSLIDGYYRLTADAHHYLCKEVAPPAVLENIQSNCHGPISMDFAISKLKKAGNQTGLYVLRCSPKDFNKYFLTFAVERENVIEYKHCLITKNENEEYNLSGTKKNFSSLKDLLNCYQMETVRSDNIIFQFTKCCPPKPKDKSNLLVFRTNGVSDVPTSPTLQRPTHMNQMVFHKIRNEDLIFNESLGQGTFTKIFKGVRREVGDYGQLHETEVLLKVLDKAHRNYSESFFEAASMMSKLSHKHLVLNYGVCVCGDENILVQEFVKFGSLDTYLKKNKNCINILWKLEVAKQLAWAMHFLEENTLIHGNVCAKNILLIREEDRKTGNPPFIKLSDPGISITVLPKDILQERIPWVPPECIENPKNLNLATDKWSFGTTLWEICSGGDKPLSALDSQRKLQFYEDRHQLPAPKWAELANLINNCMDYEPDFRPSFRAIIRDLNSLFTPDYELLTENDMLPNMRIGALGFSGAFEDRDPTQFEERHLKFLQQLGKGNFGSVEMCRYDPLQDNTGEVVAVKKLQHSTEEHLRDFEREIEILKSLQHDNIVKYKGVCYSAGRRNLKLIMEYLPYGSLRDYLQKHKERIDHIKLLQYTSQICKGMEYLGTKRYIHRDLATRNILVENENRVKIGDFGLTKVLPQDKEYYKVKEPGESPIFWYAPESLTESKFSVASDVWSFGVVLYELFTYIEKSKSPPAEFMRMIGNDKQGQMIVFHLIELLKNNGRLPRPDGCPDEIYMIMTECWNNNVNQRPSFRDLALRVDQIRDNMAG
The next series has as its target T2, ATP-citrate synthase (Homo sapiens, UniProt P53396).
T2 sequence (P53396 whole entry): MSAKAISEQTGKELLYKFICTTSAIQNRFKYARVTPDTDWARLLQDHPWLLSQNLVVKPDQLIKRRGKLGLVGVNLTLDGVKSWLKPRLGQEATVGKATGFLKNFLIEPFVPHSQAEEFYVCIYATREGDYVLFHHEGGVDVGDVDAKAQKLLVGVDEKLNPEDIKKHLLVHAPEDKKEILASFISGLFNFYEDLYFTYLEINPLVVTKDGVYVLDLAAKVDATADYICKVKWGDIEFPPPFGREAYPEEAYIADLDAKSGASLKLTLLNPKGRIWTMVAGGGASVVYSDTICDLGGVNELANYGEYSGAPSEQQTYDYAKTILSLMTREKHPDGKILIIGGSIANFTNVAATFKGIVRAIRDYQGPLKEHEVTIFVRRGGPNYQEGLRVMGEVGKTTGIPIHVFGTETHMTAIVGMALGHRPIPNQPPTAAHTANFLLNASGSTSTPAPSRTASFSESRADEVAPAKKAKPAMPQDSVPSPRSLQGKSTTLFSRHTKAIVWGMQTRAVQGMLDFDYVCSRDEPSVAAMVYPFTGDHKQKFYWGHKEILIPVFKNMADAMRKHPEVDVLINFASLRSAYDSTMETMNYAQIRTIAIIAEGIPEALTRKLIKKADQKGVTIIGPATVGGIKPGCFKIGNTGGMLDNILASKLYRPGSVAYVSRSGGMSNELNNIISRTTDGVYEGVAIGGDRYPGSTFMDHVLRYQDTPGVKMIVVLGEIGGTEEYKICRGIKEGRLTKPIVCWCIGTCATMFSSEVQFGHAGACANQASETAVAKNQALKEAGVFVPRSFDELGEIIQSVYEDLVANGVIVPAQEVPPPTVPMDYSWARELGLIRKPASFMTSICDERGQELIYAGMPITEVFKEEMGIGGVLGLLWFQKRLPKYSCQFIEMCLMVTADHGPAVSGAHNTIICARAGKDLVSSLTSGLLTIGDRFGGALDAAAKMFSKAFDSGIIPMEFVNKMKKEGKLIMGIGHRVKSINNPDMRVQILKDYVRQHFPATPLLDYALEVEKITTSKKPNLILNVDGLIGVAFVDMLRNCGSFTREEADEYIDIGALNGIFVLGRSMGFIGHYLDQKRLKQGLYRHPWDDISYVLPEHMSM
Briefly: Inhibition of ACL (unknown origin).

The target of series [4] is T3, Tyrosine-protein phosphatase non-receptor type 1 (Homo sapiens, UniProt P18031).
T3 sequence (P18031 whole entry): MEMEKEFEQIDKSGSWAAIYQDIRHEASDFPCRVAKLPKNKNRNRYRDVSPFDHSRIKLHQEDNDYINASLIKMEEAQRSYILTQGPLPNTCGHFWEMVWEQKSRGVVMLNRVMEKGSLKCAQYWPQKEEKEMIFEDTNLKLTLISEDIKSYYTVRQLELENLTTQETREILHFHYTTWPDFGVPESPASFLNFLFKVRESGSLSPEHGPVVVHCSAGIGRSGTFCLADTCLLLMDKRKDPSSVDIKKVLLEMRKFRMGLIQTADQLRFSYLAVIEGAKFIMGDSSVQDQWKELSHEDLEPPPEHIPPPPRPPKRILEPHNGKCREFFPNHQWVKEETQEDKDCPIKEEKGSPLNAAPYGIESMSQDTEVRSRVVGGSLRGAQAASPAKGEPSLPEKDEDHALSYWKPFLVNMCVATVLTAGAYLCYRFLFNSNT
In words: Inhibition of PTP1B (unknown origin) using pNPP as substrate incubated for 30 mins.

The target of series [5] is Tyrosine-protein phosphatase non-receptor type 6 (Homo sapiens, UniProt P29350). In words: Inhibition of SHP1 (unknown origin).
Chain of Tyrosine-protein phosphatase non-receptor type 6 (P29350 whole entry): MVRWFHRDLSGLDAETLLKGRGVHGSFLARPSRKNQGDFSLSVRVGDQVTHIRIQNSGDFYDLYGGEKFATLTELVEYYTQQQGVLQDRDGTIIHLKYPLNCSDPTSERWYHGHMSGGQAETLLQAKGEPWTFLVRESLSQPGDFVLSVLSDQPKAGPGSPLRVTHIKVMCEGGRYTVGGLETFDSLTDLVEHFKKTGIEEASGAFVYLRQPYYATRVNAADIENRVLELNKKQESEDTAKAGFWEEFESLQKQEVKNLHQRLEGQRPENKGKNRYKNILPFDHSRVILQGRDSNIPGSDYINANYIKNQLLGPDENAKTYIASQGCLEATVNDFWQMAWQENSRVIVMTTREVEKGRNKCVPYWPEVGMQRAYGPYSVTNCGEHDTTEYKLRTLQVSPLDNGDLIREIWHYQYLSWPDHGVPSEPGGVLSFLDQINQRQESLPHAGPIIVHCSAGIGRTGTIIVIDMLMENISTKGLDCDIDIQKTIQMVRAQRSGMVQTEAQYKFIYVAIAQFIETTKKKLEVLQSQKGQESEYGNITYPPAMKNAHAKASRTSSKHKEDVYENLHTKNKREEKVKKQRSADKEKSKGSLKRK

Activity calls are given as the source filed them. No cut-off for these calls is given here.

As for `C=C1CCC[C@H]2[C@](C)(Cc3cc(O)cc4nc(C)oc34)[C@@H](C)CC[C@]12C`, the inhibition entry in series [1], in series [2] and in series [3] was “inactive” each time. The Activity entry with A-375 and in the series on HEK293 was “Non-Toxic” in each case.

As for `CC1=CCC[C@H]2[C@](C)(Cc3cc(NC(=O)CC(C)C)ccc3O)[C@@H](C)CC[C@]12C`, the inhibition entry in series [1], in series [2] and in series [3] was “inactive” throughout. Further, the Activity entry in the series on A-375 is given as “Non-Toxic”.

Consider `CC1=CCC[C@H]2[C@](C)(Cc3cc(O)cc4nc5n(c34)CCC5)[C@@H](C)CC[C@]12C`, for which the half-inhibitory concentration (IC50) (on ATP-citrate synthase; in series [4]; in series [5]) was 2.8 to 27 µM throughout. Also, the inhibition result in series [1], in series [2] and in series [3] was “inactive” each time. The Activity entry in the series on A-375 was “Non-Toxic”.

Take `CC1=CCC[C@H]2[C@](C)(Cc3cc(O)cc4nc(C)oc34)[C@@H](C)CC[C@]12C`: the inhibition entry in series [1], in series [2] and in series [3] was “inactive” each time. Moreover, the Activity result with A-375 and with HEK293 was “Non-Toxic” in each case.

For the compound `CC(=O)Nc1ccc(O)c(C[C@]2(C)[C@@H](C)CC[C@]3(C)C(C)=CCC[C@@H]23)c1`, the inhibition result in series [1], in series [2] and in series [3] was “inactive” throughout. The Activity result in the series with A-375 and with HEK293 was “Non-Toxic” each time.

As for `CC1=CCC[C@H]2[C@](C)(Cc3cc(O)cc4[nH]c(=O)oc34)[C@@H](C)CC[C@]12C`, the IC50 (on ATP-citrate synthase; in series [4]; in series [5]) was 2.8 to 27 µM in each case. Also, the inhibition entry in series [1], in series [2] and in series [3] was “inactive” throughout. In addition, the Activity result in the series on A-375 and in the series with HEK293 was “Non-Toxic” in each case.

Take `CC1=CCC[C@H]2[C@](C)(Cc3cc(O)cc4ncoc34)[C@@H](C)CC[C@]12C`: the concentration for half-maximal inhibition (IC50) (against ATP-citrate synthase; in series [4]; in series [5]) was 2.8 to 27 µM in each case. The inhibition entry in series [1], in series [2] and in series [3] was “inactive” throughout. In addition, the Activity result in the series with A-375 and in the series with HEK293 was “Non-Toxic” each time.

Take `CC1=CCC[C@H]2[C@](C)(Cc3cc(N4CCCC4=O)ccc3O)[C@@H](C)CC[C@]12C`: the inhibition entry in series [1], in series [2] and in series [3] was “inactive” throughout. Moreover, the Activity entry in the series on A-375 and in the series on HEK293 was “Non-Toxic” in each case.

Take `C=C1CCC[C@H]2[C@](C)(Cc3cc(O)cc4nc5n(c34)CCC5)[C@@H](C)CC[C@]12C`: the IC50 (against ATP-citrate synthase; in series [4]; in series [5]) was 2.8 to 27 µM throughout. In addition, the inhibition entry in series [1], in series [2] and in series [3] was “inactive” each time. The Activity entry in the series on A-375 is “Non-Toxic”.

In the case of `CC1=CCC[C@H]2[C@](C)(Cc3cc(-n4cccc4C=O)ccc3O)[C@@H](C)CC[C@]12C`, the inhibition entry in series [1], in series [2] and in series [3] was “inactive” each time. Also, the Activity result in the series with A-375 and with HEK293 was “Non-Toxic” throughout.

For the compound `CC1=CCC[C@H]2[C@](C)(Cc3cc(O)cc4c3oc(=O)n4C)[C@@H](C)CC[C@]12C`, the inhibition result in series [1], in series [2] and in series [3] was “inactive” in each case. For the same compound, the Activity result with A-375 and in the series with HEK293 was “Non-Toxic” each time.

What is called IC50 is the midpoint of a concentration-inhibition curve. Low readings indicate greater potency in that assay, high ones weaker potency in that assay.
